The species named for one test is Homo sapiens. Nature of the test: Selectivity index, ratio IC50 for recombinant human MAO-B to IC50 for recombinant human MAO-A.
The target of test [1] is T1, Amine oxidase [flavin-containing] B (Homo sapiens, UniProt P27338).
T1 sequence (P27338 whole entry): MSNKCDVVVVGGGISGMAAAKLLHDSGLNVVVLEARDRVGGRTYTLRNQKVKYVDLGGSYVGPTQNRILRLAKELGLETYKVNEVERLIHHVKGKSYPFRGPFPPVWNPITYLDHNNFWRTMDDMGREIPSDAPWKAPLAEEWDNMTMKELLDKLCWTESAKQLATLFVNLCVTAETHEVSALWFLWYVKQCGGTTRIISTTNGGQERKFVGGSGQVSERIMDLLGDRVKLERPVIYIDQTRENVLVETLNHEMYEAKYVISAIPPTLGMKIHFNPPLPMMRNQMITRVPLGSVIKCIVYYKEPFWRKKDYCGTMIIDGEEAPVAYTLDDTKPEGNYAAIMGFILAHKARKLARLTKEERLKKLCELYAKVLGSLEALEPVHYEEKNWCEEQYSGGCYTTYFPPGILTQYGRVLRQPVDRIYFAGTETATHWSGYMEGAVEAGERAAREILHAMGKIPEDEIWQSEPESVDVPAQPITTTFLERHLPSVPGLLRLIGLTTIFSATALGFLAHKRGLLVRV
Nature of the test: Inhibition of recombinant human MAO-B expressed in baculovirus infected BTI insect cells using kynuramine as substrate after 20 mins by fluorescence spectrophotometric assay.

Test [2] has as its target T2, Amine oxidase [flavin-containing] A (Homo sapiens, UniProt P21397).
T2 sequence (P21397 whole entry): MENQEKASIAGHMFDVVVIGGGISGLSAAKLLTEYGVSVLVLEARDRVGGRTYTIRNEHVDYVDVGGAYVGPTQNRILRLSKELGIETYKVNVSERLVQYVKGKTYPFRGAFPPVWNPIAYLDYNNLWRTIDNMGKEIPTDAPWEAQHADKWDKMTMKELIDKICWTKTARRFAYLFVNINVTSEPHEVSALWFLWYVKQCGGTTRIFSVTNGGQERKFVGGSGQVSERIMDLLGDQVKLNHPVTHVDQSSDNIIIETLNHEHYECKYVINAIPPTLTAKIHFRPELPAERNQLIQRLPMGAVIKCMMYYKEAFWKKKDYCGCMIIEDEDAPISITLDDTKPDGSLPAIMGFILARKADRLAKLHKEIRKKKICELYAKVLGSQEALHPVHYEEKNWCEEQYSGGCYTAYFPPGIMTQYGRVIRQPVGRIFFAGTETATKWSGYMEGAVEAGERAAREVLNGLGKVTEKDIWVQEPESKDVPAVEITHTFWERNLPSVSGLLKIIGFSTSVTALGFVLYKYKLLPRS
The test is described as follows: Inhibition of recombinant human MAO-A expressed in baculovirus infected BTI insect cells using kynuramine as substrate after 20 mins by fluorescence spectrophotometric assay.

For test [3], the target named is T2, Amine oxidase [flavin-containing] A. The test is described as follows: Inhibition of recombinant human MAO-A expressed in baculovirus infected BTI insect cells using kynuramine as substrate after 20 mins by Lineweaver-Burk plot analysis.
The target in test [4] is T1, Amine oxidase [flavin-containing] B. The test is described as follows: Inhibition of recombinant human MAO-B expressed in baculovirus infected BTI insect cells using kynuramine as substrate after 20 mins by Lineweaver-Burk plot analysis.

Among the data in ChEMBL document CHEMBL5143549, “Phenothiazine, anthraquinone and related tricyclic derivatives as inhibitors of monoamine oxidase” (Bioorg Med Chem, 2022) are Ratio IC50, IC50 and Ki values, retold here.

The structures appear in SMILES notation.

Broadly, the IC50 is the concentration that gives 50% inhibition. Take `c1ccc2c(c1)Cc1ccccc1O2` [XANTHENE]: the Ratio IC50 in the test filed under Homo sapiens was 0.32. Further, the values for the IC50 in test [1] and in test [2] were 7.42 µM and 24.8 µM, respectively.
Take `Nc1c(C(=O)O)c2nc3c(C(=O)O)cccc3oc-2cc1=O` [CINNABARINIC ACID]: the Ratio IC50 in the test listed under Homo sapiens stood at 1.43. In addition, the values for the IC50 in test [1] and in test [2] were 65 µM and 45.3 µM, respectively.
On to `O=C1c2cccc(O)c2C(=O)c2c(O)cc(CO)cc21` [ALOE-EMODIN], for which, in the test filed under Homo sapiens, the Ratio IC50 amounted to 12.4. Further, the IC50 in test [1] came out at 21.9 µM; in test [2], 1.77 µM.
For `Nc1c2ccccc2nc2ccccc12` [AMINACRINE] the same measures were 4.31, 112 µM and 26 µM.
Turning to `O=C1c2cccc(O)c2C(=O)c2cccc(O)c21` [ANTHRARUFIN], the IC50 in test [2] came to 30.8 µM.
With `O=C1c2ccc(O)cc2C(=O)c2ccc(O)cc21` [ANTHRAFLAVICACID], in the test listed under Homo sapiens, the Ratio IC50 came to 0.49. Also, the figures for the IC50 in test [1] and in test [2] were 5.62 µM and 11.5 µM, respectively.
On the same counts, the results for `Cc1cc(O)c2c(c1)C(=O)c1cc(O)cc(O)c1C2=O` [EMODIN] are 0.75, 3.24 µM and 4.32 µM.
As usually defined, the Ki is the equilibrium dissociation constant of an inhibitor or competing ligand from its target. For `O=C1c2ccccc2C(=O)c2c(O)ccc(O)c21` [QUINIZARIN], the Ratio IC50 in the test filed under Homo sapiens turned out to be 1690. The Ki in test [3] is 0.039 µM. For the same compound, the IC50 in test [1] is 110 µM; in test [2], 0.065 µM.
Regarding `COc1ccc2c(c1)Sc1ccc(Cl)cc1N2`, the IC50 in test [1] worked out at 1.34 µM; in test [2], 0.576 µM. Also, in test [4], the Ki amounted to 0.045 µM.
Consider `Cc1ccc2nc3c(ccc4ccccc43)c(C)c2c1`, for which the concentration for half-maximal inhibition (IC50) in test [2] is 95.1 µM.
On to `O=C1c2ccccc2C(=O)c2c(O)c(O)cc(O)c21` [PURPURIN], for which, in the test filed under Homo sapiens, the Ratio IC50 came out at 5.03. The IC50 stood at 40.2 µM in test [1] and 7.99 µM in test [2].
Turning to `O=C1c2ccccc2C(=O)c2c1ccc1c(=O)c3ccccc3[nH]c21`, the IC50 in test [2] turned out to be 85.6 µM.
Turning to `O=C1c2ccccc2C(=O)c2cnccc21`, the Ratio IC50 in the test filed under Homo sapiens is 0.21. In addition, the values for the IC50 in test [1] and in test [2] were 4.28 µM and 20.2 µM, respectively.
Regarding `O=C1c2ccccc2C(=O)c2ccccc21` [ANTHRAQUINONE], in test [2], the IC50 was 122 µM.
With `O=C1c2cccc(O)c2C(=O)c2c(O)cccc21` [DANTHRON], the Ratio IC50 in the test listed under Homo sapiens is 5.49. In addition, the half-maximal inhibitory concentration (IC50) in test [1] turned out to be 58.7 µM; in test [2], 10.7 µM.
For the compound `Nc1ccc(N)c2c1C(=O)c1ccccc1C2=O`, the IC50 in test [2] was 1.06 µM.
Same read-out and setting: for `O=c1c2ccccc2oc2ccccc12` [XANTHONE] the value was 0.623 µM.
Regarding `OC1c2ccccc2Oc2ccccc21`, the Ratio IC50 in the test filed under Homo sapiens is 3.24. In addition, the IC50 was determined as 92 µM in test [1] and 28.4 µM in test [2].
For `Clc1ccc2c(c1)Nc1ccccc1S2`, the IC50 in test [2] amounted to 1.22 µM.
On the same count and under the same terms, for `O=C1C(=O)c2ccccc2-c2ccccc21` [9,10-PHENANTHRENEQUINONE] the value was 1.92 µM.
On the same count and under the same terms, the value for `O=C1c2ccccc2Cc2ccccc21` [ANTHRONE] was 1.89 µM.
As to `Clc1c2ccccc2nc2ccccc12`, the Ratio IC50 in the test listed under Homo sapiens came out at 7.6. Also, the IC50 in test [1] turned out to be 91.9 µM; in test [2], 12.1 µM.
As for `CC1(C)CC(=O)C2=C(C1)C(=O)C1=C(C2)C(=O)CC(C)(C)C1`, the half-maximal inhibitory concentration (IC50) in test [2] came out at 51 µM.
Still for that read-out and setting: for `O=C1c2ccc(O)c(O)c2C(=O)c2c(O)ccc(O)c21` [QUINALIZARIN] the value was 17 µM; for `CN1c2ccccc2Sc2ccccc21`, 24.9 µM.
For the compound `Nc1ccc2c(c1N)C(=O)c1ccccc1C2=O`, the Ratio IC50 in the test filed under Homo sapiens is 1.06. Also, the values for the IC50 in test [1] and in test [2] were 2.41 µM and 2.28 µM, respectively.
